In publication PMC8901748, “A novel prostaglandin E receptor 4 (EP4) small molecule antagonist induces articular cartilage regeneration” (Cell Discovery, 2022):
Where two headings read alike, the source gives them in different places.

How the values were obtained:
zebrafish embryos = experiment: Zebrafish embryo toxicity assay; set-up: Mortality / Deformities / Hatching: dose or concentration left out as unconfirmed; settings: for Mortality: zebrafish embryos; for Deformities / Hatching: zebrafish
Experimental: A breeding stock of zebrafish at the age of 6–24 months is used for egg production. Fertilized eggs were collected and viable eggs were transferred to the 12-well plate at 26 °C. Fertilized eggs between the 4-cell and 128-cell stages be used for the toxicity test, with ten fertilized eggs per concentration and three replicates of each concentration, a total of 30 eggs for each concentration. […] DMSO was added as vehicle control. Hatching, morphological abnormalities and survival were assessed 24 and 72 h of post-fertilization (dpf) in zebrafish exposed to the chemicals.

[1] = test system: articular cartilage defect; experiment: Microfracture (MF) surgery-induced cartilage defect (CD) rat model; format: in vivo, Sprague-Dawley (SD) rats; settings: hydrogel containing compound; for Cartilage regeneration, appearance of the defect: 6 weeks of post-surgery
Experimental: Ca(NO3)2·4H2O was obtained from Sinopharm Chemical Reagent. Waxy starch (amylopectin more than 90%) was purchased from Qinhuangdao Lihua Starch. For the preparation of starch hydrogels, a fixed water-to-starch mass ratio of 5 was used, and the crosslinker Ca(NO3)2·4H2O was dissolved in the starch solution. The mixture was stirred at 60 °C for 1 h to obtain a viscous gel. The starch hydrogel prepared with Ca(NO3)2·4H2O and Waxy starch was named as 14 Gel. The hydrogel is sterilized by UV for 30 min and then used. HL-43 and Grapiprant were each dissolved in the DMSO solvent (100 mM). Compound/14 Gel was prepared by mixing the solutions at a weight ratio of 1/10 (w/w).
Thirty-six male Sprague-Dawley (SD) rats (280–300 g) were randomized into three groups (each group n = 4 rats for each time point), […] were used as controls (n = 4). After anesthetizing with 3.5% chloral hydrate (10 ml/kg), the rats were fixed on the operating table in supine position and the skin was prepared and disinfected. A 2 cm longitudinal incision along the medial margin of the patella of the right knee was made with a scalpel and then the capsule was open to expose the articular cartilage surface. A manual drill with a diameter of 2 mm was used to drill holes in the femoral intercondylar fossa of the rat (2 mm × 2 mm). After washing with saline, the gauze was pressed and 100 μl 14 Gel containing appropriate drugs or vehicle were injected. After the injection, the compression flexes and compresses were applied several times to spread the gel throughout the knee joint. The ligaments and skin were sutured. After 2, 4, and 6 weeks, the repaired articular cartilage was histologically analyzed and correlation was scored.

[2] = test system: primary articular chondrocytes; experiment: Cell viability by CCK-8 assay; format: cell-based, mouse; settings: 72 h, read-out: IC50 (cell viability, toxicity in chondrocytes)
Experimental: The cell viability was evaluated by CCK-8 assay (Dojindo Molecular Technologies). Primary chondrocytes were plated in the 96-well plates and treated with the EP4 antagonists or DMSO for 72 h. A total of 10 μl CCK-8 was added to each well, the cells were incubated in the presence of CCK-8 for 2–3 h. The optical density (OD) of each well at 450 nm was recorded on a Microplate Reader (SPECTRA MAX190). The absorbance values were normalized by subtracting blank values of […]. The cell viability (% of control) is calculated as the percentage of (ODtest − ODblank)/(ODcontrol − ODblank). The 50% inhibitory concentration (IC50) was calculated with GraphPad Prism software using the sigmoidal dose-response function.
ATDC5 cell line was purchased from Riken BioResource Center (Tsukuba, Japan) and grown in a 1:1 mixture of DMEM/F12 medium (Corning, 10-092-CVR) supplemented with 5% fetal bovine serum (Gibco, 10099, USA) and 1% penicillin-streptomycin solution (Life Technologies). Cells were maintained at 37 °C under 5% CO2. Primary chondrocytes were obtained from knee joint cartilage of newborn mice. Knee joints were dissected from the tibia plateau and femoral condyle articular cartilage of mouse pups and digested in 0.1% collagenase type II (Sigma) overnight at 37 °C and chondrocytes were harvested by centrifugation. Primary chondrocytes were cultured at a density of 5 × 10^3 cells per ml at 37 °C with 5% CO2. DMEM/F12 medium with 10% fetal bovine serum (FBS) and 1% penicillin–streptomycin was used to culture the primary chondrocytes. Chondrogenic differentiation were induced with chondrogenic medium, which contains insulin-transferrin-selenium (ITS) (Sigma, I3146), 10 ng/ml TGF-β3 (PEPROTECH, 100-36E, USA), 100 nM Dexamethasone (Sigma, D4902), 50 μg/ml VC (Sigma), 1 mM sodium pyruvate (Sigma) and 40 μg/ml proline (Sigma), and/or treatment with rmIL-1β (R&D, 401-ML/CF), TNFα (PEPROTECH, 300-01A-50) in DMEM/F12 for indicated days. Western blotting was performed according to standard protocols. Antibodies used were: rabbit anti-Mmp3 (1:1000, HuaBio), rabbit anti-Mmp13 (1:500, abcam, ab39012), rabbit anti-p-CREB (1:2000, Cell Signaling Technology, 87G3), rabbit anti-CREB (1:2000, Cell Signaling Technology, 48H2), mouse anti-GAPDH (1:5000; Sigma-Aldrich, G8795), rabbit anti-Col2 (Abcam, Ab34712), rabbit anti-STAT3 (1:2000; Abcam, ab68153), rabbit anti-p-STAT3 (Y705) (1:2000; Abcam, ab76315), rabbit anti -p65 (1:1000; CST, 3034), rabbit anti-p-p65 (1:1000; CST, 3033), and rabbit anti-IκBα (1:1000; Abways, CY5026).

[3] = 72 hpf, in comparison to Celecoxib and Grapiprant

SMILES | Mortality (zebrafish embryos; 24hpf, 0.3, n=30) | Mortality (zebrafish embryos; 24hpf, 1, n=30) | Mortality (zebrafish embryos; 24hpf, 3, n=30) | Deformities (zebrafish embryos; 72hpf, 0.3, n=30) | Hatching (zebrafish embryos; 72hpf, 0.3, n=30) | Deformities (zebrafish embryos; 72hpf, 1, n=30) | Hatching (zebrafish embryos; 72hpf, 1, n=30) | Deformities (zebrafish embryos; 72hpf, 3, n=30) | Hatching (zebrafish embryos; 72hpf, 3, n=30) | Cartilage regeneration, appearance of the defect [1] | IC50 ([2]; Mus musculus, Chondrocyte) [µM] | Mortality rate, ranking (zebrafish embryos; 24 hpf, in comparison to Celecoxib and Grapiprant) | Deformities rate, ranking (zebrafish embryos; [3]) | Hatching rate, ranking (zebrafish embryos; [3]) | Cartilage repair, ICRS Macroscopic and ICRS Visual Histological scores ([1]; 4 weeks after MF surgery) | IC50 [2] [µM]
CCc1nc2c(C)nc(C)cc2n1-c1ccc(CCNC(=O)NS(=O)(=O)c2ccc(C)cc2)cc1 [Grapiprant] | 4/30 | 14/30 | 13/30 | 4/30 | 24/30 | 3/30 | 16/30 | 4/30 | 17/30 | still visible | 113 |  |  |  |  | 
C[C@H](NC(=O)c1c(-c2ccccc2)nnn1CCOc1ccc(F)cc1)c1ccc(C(=O)O)cc1 [HL-43] | 0/30 | 3/30 | 6/30 | 2/30 | 28/30 | 2/30 | 26/30 | 4/30 | 23/30 | surfaces were smooth and cartilage layers were regenerated |  | lowest mortality rate | lowest deformities rate | highest hatching rate | mild effects on cartilage repair | > 1000
